Assay results from ChEMBL document CHEMBL1147948, “Preparation of novel anthranilic acids as antibacterial agents: extensive evaluation of structural and physical properties on antibacterial activity and human serum albumin affinity” (Bioorg Med Chem Lett, 2007).
Values after ≈ are worked out from the molar mass of the structure shown.

Columns and labels:
Staphylococcus aureus [1] = experiment: Antibacterial activity against Staphylococcus aureus UC 9218; format: functional
Albumin = Albumin (Homo sapiens, UniProt P02768); experiment: Binding affinity to human serum albumin
Albumin, sequence (P02768 whole entry): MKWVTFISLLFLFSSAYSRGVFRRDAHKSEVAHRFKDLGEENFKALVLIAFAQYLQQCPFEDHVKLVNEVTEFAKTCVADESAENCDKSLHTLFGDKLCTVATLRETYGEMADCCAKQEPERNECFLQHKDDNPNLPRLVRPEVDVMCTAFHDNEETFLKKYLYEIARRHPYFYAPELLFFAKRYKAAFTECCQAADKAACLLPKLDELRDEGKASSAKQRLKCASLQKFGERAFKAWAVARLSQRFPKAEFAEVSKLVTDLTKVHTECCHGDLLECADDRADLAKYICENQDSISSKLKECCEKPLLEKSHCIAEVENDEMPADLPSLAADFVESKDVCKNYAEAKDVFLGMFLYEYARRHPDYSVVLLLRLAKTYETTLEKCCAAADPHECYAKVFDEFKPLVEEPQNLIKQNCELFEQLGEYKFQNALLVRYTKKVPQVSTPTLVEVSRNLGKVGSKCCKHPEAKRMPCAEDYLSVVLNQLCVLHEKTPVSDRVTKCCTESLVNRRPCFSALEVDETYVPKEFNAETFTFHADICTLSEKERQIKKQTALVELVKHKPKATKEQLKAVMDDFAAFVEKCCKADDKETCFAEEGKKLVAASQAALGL

Staphylococcus aureus [2] = experiment: Antibacterial activity against Staphylococcus aureus UC 9218 in presence of 10% human serum; format: functional
Staphylococcus aureus [3] = experiment: Ratio of MIC of Staphylococcus aureus UC 9218 in presence of 10% serum to MIC of Staphylococcus aureus UC 9218 in absence of serum; format: functional
Staphylococcus aureus [4] = experiment: Antibacterial activity against Staphylococcus aureus UC 9218 in presence of 5% human serum; format: functional

MIC (Staphylococcus aureus [1]) [µg/mL] | Kd (Albumin) [nM] | MIC (Staphylococcus aureus [2]) [µg/mL] | MIC (Staphylococcus aureus [4]) [µg/mL] | Compound | Ratio (Staphylococcus aureus [3])
1 (≈ 2.53 µM) | – | 32 | – | CC(C)Sc1ccc(C(=O)Nc2ccc(Br)cc2C(=O)O)cn1 | 32
– | – | 16 | – | CCCC(C)Sc1ccc(C(=O)Nc2ccc(C#N)cc2C(=O)O)cn1 (stereo not given) | 128
– | – | 8 | – | CCC(CC)Sc1ccc(C(=O)Nc2ccc(C#N)cc2C(=O)O)cn1 | 32
0.5 (≈ 1.53 µM) | – | 8 | – | CCSc1ccc(C(=O)Nc2ccc(C#N)cc2C(=O)O)cn1 | 16
0.5 (≈ 1.46 µM) | – | 32 | – | CCCSc1ccc(C(=O)Nc2ccc(C#N)cc2C(=O)O)cn1 | 64
– | – | 16 | – | CCCCC(C)Sc1ccc(C(=O)Nc2ccc(C#N)cc2C(=O)O)cn1 (stereo not given) | 128
1 (≈ 2.93 µM) | – | 16 | – | CC(C)Sc1ccc(C(=O)Nc2ccc(C#N)cc2C(=O)O)cn1 | 16
0.5 (≈ 1.41 µM) | – | 8 | – | CC(C)CSc1ccc(C(=O)Nc2ccc(C#N)cc2C(=O)O)cn1 | 16
32 (≈ 102 µM) | – | > 128 | – | CSc1ccc(C(=O)Nc2ccc(C#N)cc2C(=O)O)cn1 | 8

Second part, the compound before the results:

Compound | MIC (Staphylococcus aureus [1]) [µg/mL] | Kd (Albumin) [nM] | MIC (Staphylococcus aureus [2]) [µg/mL] | MIC (Staphylococcus aureus [4]) [µg/mL] | Ratio (Staphylococcus aureus [3])
COCCOCCCSc1ccc(C(=O)Nc2ccc(C#N)cc2C(=O)O)cn1 | 1 (≈ 2.41 µM) | 700 | 4 | – | 4
N#Cc1ccc(NC(=O)c2ccc(SC3CCCCC3)nc2)c(C(=O)O)c1 | 0.5 (≈ 1.31 µM) | – | 32 | – | 64
O=C(Nc1ccc(Br)cc1C(=O)O)c1ccc(SC2CCCCC2)nc1 | 1 (≈ 2.3 µM) | – | 64 | – | 64
CCCCCCSc1ccc(C(=O)Nc2ccc(Cl)cc2C(=O)O)cn1 | – | – | 64 | – | 512
CCCCCCCCCSc1ccc(C(=O)Nc2ccc(C#N)cc2C(=O)O)cn1 | 1 (≈ 2.35 µM) | – | > 128 | – | > 128
N#Cc1ccc(NC(=O)c2ccc(SC3CCOCC3)nc2)c(C(=O)O)c1 | – | – | 4 | – | 32
CCCCSc1ccc(C(=O)Nc2ccc(C#N)cc2C(=O)O)cn1 | – | – | 16 | – | 64
CCCCCCSc1ccc(C(=O)Nc2ccc(C#N)cc2C(=O)O)cn1 | – | – | 8 | – | 64
CCCCCCSc1ccc(C(=O)Nc2ccc(Br)cc2C(=O)O)cn1 | – | – | 64 | – | 512
CC(C)(C)c1ccc(-c2ccc(NC(=O)c3cccc(S(=O)(=O)N4CCc5cc(Cl)ccc54)c3)c(C(=O)O)c2)cc1 | 16 (≈ 27.2 µM) | – | > 128 | > 128 | –
CC(C)(C)c1ccc(-c2cncc(C(=O)Nc3ccc(C#N)cc3C(=O)O)c2)cc1 | – | – | > 128 | > 128 | –
CCCCCSc1ccc(C(=O)Nc2ccc(C#N)cc2C(=O)O)cn1 | – | – | 4 | – | 32
N#Cc1ccc(NC(=O)c2ccc(SC3CCCC3)nc2)c(C(=O)O)c1 | 0.5 (≈ 1.36 µM) | – | 16 | – | 32
O=C(Nc1ccc(Br)cc1C(=O)O)c1ccc(SC2CCOCC2)nc1 | 1 (≈ 2.29 µM) | – | 32 | – | 32
